Common to all, as to test: growth of human tumour cells (NCI), 48 h
Test [1] has as its system A498 renal.
In test [2] the test system is A549 NSCLC.
For test [3], the system named is COLO 205 colon.
Test [4] relates to EKVX NSCLC.
For test [5], the system named is NCI-H226 lung.
Test [6] concerns NCI-H522 lung.
Test [7] concerns RPMI-8226 leukemia.
In test [8] the test system is SF-539 CNS.
The subject of test [9] is SK-OV-3 ovarian.
Test [10] concerns SN12C renal.

Several values for one entry are separate records, joined by “and”; a condition that tells them apart may be missing. Equal values may be shown once.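 Five concentrations, 48 hours, 96-well plates. At the GI50, growth is halved. TGI: total growth inhibition.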

As to `CC1[C@@H]2[C@@H](C=C3C4CCC5Cc6nc7c(nc6C[C@@]5(C)C4C[C@H](O)[C@]32CO)CC2CCC3C4=C[C@H]5O[C@@]6(O[C@@](C)(CO)C[C@@H]6O)C(C)[C@@]5(O)[C@]4(C)[C@@H](O)CC3[C@]2(C)C7)O[C@]12CCC(C)(C)O2` (stereo partly drawn), the GI50 was 4.09 nM in [1]; 6.02 nM in test [2]; 42.3 nM in test [3]; 11.9 nM in test [4]; 6.26 nM in test [5]; 22.8 nM in test [6]. The GI50 was under 0.365 nM in [7], 3.63 nM in test [8], under 0.365 nM in test [9] and over 3650 nM in test [10]. The TGI in test [1] is 84.1 nM and 165 nM; in test [2], 919 nM and > 3650 nM; in test [3], 566 nM and 138 nM; in test [4] it was 749 nM and 2000 nM; in [5] it was 543 nM and > 3650 nM; in [6], 429 nM. Also, the TGI in test [9] is 99.1 nM and 22.4 nM; in [10], over 3650 nM.

On to `Cc1cc(C)nc(NC(N)=NCCc2ccccc2)n1`, for which the GI50 in test [1] is 5260 nM; in test [2] it was 3030 nM; in test [3] it was 2680 nM; in [4], 3660 nM; in test [5], 5060 nM; in test [6], 6020 nM. In addition, the GI50 was 6450 nM in test [7], 2560 nM in test [8], 2650 nM in test [9] and 3200 nM in test [10]. Moreover, the TGI in test [1] is 39000 nM; in [2] it was 89000 nM; in test [3], 12500 nM; in [4], 89900 nM; in [5], over 100000 nM; in test [6], 65900 nM. Also, the TGI in test [7] is over 100000 nM; in test [8], 26200 nM; in [9], 28900 nM; in [10], 35800 nM.

On to `COc1ccc(-c2[nH]ncc2-c2cc3c(c(OC)c2)OCC(=O)N3)cc1`, for which the GI50 in test [1] was 170 nM; in test [2], 1440 nM; in test [3], 465 nM; in [4], 675 nM; in test [5], 1660 nM; in test [6], 247 nM. Also, the GI50 in test [7] was 796 nM; in test [8], 372 nM; in test [9], 715 nM; in test [10] it was 630 nM. Further, the TGI in test [1] is 646 nM; in [2], over 100000 nM; in test [3] it was 12800 nM; in test [4], over 33700 nM; in [5] it was 41500 nM; in test [6], 6330 nM. For the same compound, the TGI was 18900 nM in test [7], 2160 nM in test [8], over 100000 nM in test [9] and over 100000 nM in [10].

With `O=C(c1ccccc1)c1c(NCC(O)CN2CCCC2)n(Cc2ccccc2)c(=O)n(Cc2ccccc2)c1=O` (stereo not drawn), the GI50 was 2300 nM in test [1]; 32300 nM in [2]; 16200 nM in [3]; 19600 nM in test [4]; 18600 nM in test [5]; 19800 nM in test [6]. Also, the GI50 in test [7] is 19300 nM; in test [8], 19600 nM; in test [9] it was 34000 nM; in test [10], 19300 nM. Also, the TGI in test [1] was 12700 nM; in test [2], over 100000 nM; in test [3], 31200 nM; in [4], 49100 nM; in test [5], 48400 nM; in test [6], 35600 nM. Besides, the TGI in test [7] is 48400 nM; in test [8], 33900 nM; in test [9], over 100000 nM; in test [10], 39100 nM.

Consider `COC(=O)[C@@H](NC(=O)NC(=O)NC(=O)CI)C(C)C`, for which the GI50 in test [1] was 16700 nM; in [2], 22400 nM; in [3], 1970 nM; in test [4], 17200 nM; in test [5] it was 16200 nM; in test [6] it was 1690 nM. Further, the GI50 in test [7] was 4830 nM; in [8], 3920 nM; in test [9], 18300 nM; in test [10], 5460 nM. For the same compound, the TGI in [1] stood at 30900 nM; in test [2], 41500 nM; in test [3] it was 4010 nM; in [4], 31400 nM; in test [5], 38400 nM; in test [6], 3310 nM. Besides, the TGI in test [7] turned out to be 26100 nM; in test [8], 14800 nM; in test [9], 33000 nM; in test [10] it was 25700 nM.

Regarding `CN1CCN(c2ccc(C(=O)Nc3n[nH]c4ccc(Cc5cc(F)cc(F)c5)cc34)c(NC3CCOCC3)c2)CC1`, the GI50 in test [1] was 1770 nM and 846 nM; in test [2], 2500 nM and 1300 nM; in [3], 1480 nM; in test [4], 3070 nM; in test [5], 1470 nM and 1360 nM; in [6], 1600 nM and 1700 nM. Further, the GI50 in test [7] was 2300 nM and 1860 nM; in test [8], 2660 nM and 1560 nM; in test [9] it was 6650 nM and 1700 nM; in test [10], 2600 nM and 1340 nM. In addition, the TGI in [1] is 6850 nM and 2240 nM; in test [2], > 10000 nM and 2720 nM; in test [3] it was 3100 nM; in [4], over 10000 nM; in [5] it was > 10000 nM and 3110 nM; in test [6], 3360 nM and 3240 nM. For the same compound, the TGI in test [7] was 7020 nM and 4390 nM; in test [8], > 10000 nM and 2920 nM; in test [9], > 10000 nM and 3190 nM; in test [10], > 10000 nM and 2930 nM.

On to `Cc1c2cnccc2c(C)c2c1c1cc(C3OCCCO3)ccc1n2C`, for which the GI50 in test [1] is 139 nM; in test [2] it was 461 nM; in test [3] it was 357 nM; in test [4], 451 nM; in test [5] it was 213 nM; in test [6] it was 466 nM. Moreover, the GI50 in test [7] was 282 nM; in test [8], 272 nM; in [9] it was 325 nM; in test [10], 192 nM. The TGI worked out at 520 nM in test [1]; 2500 nM in [2]; 1750 nM in [3]; 2560 nM in test [4]; 962 nM in test [5]; 2480 nM in [6]. Also, the TGI in test [7] was determined as 1280 nM; in test [8], 1320 nM; in test [9] it was 1760 nM; in test [10], 1300 nM.

For the origin of these results see PubChem BioAssay (NCI).
